Data published in US8841301B2, “Selective NR2B antagonists” (Bristol-Myers Squibb Company, priority 2011, dated 2014).
pIC50: −log10 of the molar value.

These molecules were tested against hNR2B (Homo sapiens, UniProt Q05586+Q13224) (assay: Electrophysiology NMDA receptor experiments: two electrode voltage-clamp in Xenopus laevis oocytes expressing GluN1/GluN2 subunits). Conditions: oocytes voltage clamped at −40 mV; 50 μM glutamate, 30 μM glycine; read-out: Rating (hNR2B IC50).
hNR2B, sequence (Q13224 27-1484, other chains not shown): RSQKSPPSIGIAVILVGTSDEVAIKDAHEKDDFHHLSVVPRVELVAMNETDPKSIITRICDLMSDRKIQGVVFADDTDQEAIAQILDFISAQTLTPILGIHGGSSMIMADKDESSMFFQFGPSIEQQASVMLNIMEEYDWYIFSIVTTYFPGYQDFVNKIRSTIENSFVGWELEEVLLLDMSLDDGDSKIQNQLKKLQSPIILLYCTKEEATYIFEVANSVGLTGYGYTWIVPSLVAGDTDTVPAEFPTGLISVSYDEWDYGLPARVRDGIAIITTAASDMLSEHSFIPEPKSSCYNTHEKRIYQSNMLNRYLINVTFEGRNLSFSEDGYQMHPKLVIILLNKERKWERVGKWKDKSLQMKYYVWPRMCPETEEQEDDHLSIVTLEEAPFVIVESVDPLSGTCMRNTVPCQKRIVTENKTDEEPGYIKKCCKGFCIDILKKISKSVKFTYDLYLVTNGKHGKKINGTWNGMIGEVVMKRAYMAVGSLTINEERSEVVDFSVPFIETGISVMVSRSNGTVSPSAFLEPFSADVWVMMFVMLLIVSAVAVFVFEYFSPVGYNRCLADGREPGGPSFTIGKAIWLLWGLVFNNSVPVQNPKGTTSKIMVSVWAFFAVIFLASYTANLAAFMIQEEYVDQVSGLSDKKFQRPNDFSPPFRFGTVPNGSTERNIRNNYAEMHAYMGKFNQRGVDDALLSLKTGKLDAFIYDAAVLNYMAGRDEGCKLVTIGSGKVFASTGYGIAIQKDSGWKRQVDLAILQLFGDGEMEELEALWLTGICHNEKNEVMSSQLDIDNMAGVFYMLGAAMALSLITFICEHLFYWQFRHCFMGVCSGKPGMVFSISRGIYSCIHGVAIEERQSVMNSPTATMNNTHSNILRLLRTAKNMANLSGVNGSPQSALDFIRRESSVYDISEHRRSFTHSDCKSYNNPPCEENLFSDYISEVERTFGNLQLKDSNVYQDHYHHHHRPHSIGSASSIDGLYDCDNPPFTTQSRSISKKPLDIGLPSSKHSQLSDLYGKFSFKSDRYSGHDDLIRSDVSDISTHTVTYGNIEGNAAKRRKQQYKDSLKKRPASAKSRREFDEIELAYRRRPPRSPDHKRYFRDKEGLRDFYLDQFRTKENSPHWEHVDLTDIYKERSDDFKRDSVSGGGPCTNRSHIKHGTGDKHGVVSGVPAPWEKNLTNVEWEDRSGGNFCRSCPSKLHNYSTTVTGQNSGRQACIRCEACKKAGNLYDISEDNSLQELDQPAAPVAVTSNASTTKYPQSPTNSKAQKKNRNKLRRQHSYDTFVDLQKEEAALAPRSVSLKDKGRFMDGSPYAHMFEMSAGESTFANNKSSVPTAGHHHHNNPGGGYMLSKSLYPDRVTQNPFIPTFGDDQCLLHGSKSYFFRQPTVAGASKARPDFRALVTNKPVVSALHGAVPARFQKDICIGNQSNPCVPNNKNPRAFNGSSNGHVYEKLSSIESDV
Assay type: cell-based
Experimental: Electrophysiology NMDA Receptor Experiments.
Stage V and VI oocytes were surgically removed from the ovaries of large, well-fed and healthy Xenopus laevis anesthetized with 3-amino-benzoic acid ethyl ester (3 gm/l). Clusters of isolated oocytes were incubated with 292 U/ml Worthington (Freehold, N.J.) type IV collagenase or 1.3 mg/ml collagenase (Life Technologies, Gaithersburg, Md.; 17018-029) for 2 hr in Ca^2+-free solution comprised of (in mM) 115 NaCl, 2.5 KCl, and 10 HEPES, pH 7.5, with slow agitation to remove the follicular cell layer. Oocytes were then washed in the same solution supplemented with 1.8 mM CaCl2 and maintained in Barth's solution comprised of (in mM): 88 NaCl, 1 KCl, 2.4 NaHCO3, 10 HEPES, 0.82 MgSO4, 0.33 Ca(NO3)2, and 0.91 CaCl2 and supplemented with 100 μg/ml gentamycin, 10 μg/ml streptomycin, and 10 μg/ml penicillin. Oocytes were manually defolliculated and injected within 24 hrs of isolation with 3-5 ng of human GluN1 subunit cRNA and 7-10 ng of human GluN2 cRNA subunit in a 50 nl volume, and incubated in Barth's solution at 18° C. for 2-7 d. Glass injection pipettes had tip sizes ranging from 10-20 microns, and were backfilled with mineral oil. cRNA was synthesized from linearized template cDNA for rat glutamate receptor subunits according to manufacturer specifications (Ambion).
Two electrode voltage-clamp recordings were made 2-7 days post-injection. Oocytes were placed in a dual-track plexiglass recording chamber with a single perfusion line that splits in a Y-configuration to perfuse two oocytes. Dual recordings were made at room temperature (23° C.) using two Warner OC725B two-electrode voltage clamp amplifiers, arranged as recommended by the manufacturer. Glass microelectrodes (1-10 Megaohms) were filled with 300 mM KCl (voltage electrode) or 3 M KCl (current electrode). The bath clamps communicated across silver chloride wires placed into each side of the recording chamber, both of which were assumed to be at a reference potential of 0 mV. Oocytes were perfused with a solution comprised of (in mM) 90 NaCl, 1 KCl, 10 HEPES, […] and 0.5 BaCl2; pH 7.4, adjusted by addition of NaOH. Oocytes were recorded under voltage clamp at −40 mV. Final concentrations for glutamate and glycine were 50 μM and 30 μM, respectively. Concentration-response curves for experimental compounds were obtained by applying in successive fashion maximal glutamate/glycine, followed by glutamate/glycine plus variable concentrations of experimental compounds. Dose response curves consisting of four to eight concentrations were obtained in this manner. The baseline leak current at −40 mV was measured before and after recording, and the full recording linearly corrected for any change in leak current. The level of inhibition by applied experimental compounds was expressed as a percent of the initial glutamate response, and averaged together across oocytes from multiple experiments. Results were pooled, and the average percent responses at antagonist concentrations were fit by the equation, Percent Response=(100−minimum)/(1+([conc]/IC50)^nH)+minimum where minimum is the residual percent response in saturating concentration of the experimental compounds, IC50 is the concentration of antagonist that causes half of the achievable inhibition, and nH is a slope factor describing steepness of the inhibition curve. […]
For NMDA receptor subtype selectivity experiments human GluN1/GluN2A, GluN1/GluN2C, and GluN1/GluN2D cRNAs were expressed in Xenopus laevis as described above. Here, 10 μM concentrations of the antagonist was perfused with 50 μM glutamate and 30 μM glycine onto the oocyte for two min and the remaining current in the presence of the antagonist was compared to the maximal current obtained with 50 μM glutamate and 30 μM glycine alone (defined as 100%). When IC50 determinations were made against other NMDA receptor subtypes the protocol as described above was followed. […]
With `FC(F)Oc1ccc(Nc2ncc(COc3ccc4[nH]ncc4c3)cn2)cc1` [Example 57] the pIC50 was over 6.70. In the case of `O=C1Nc2ccc(OCc3cnc(Nc4ccc(OC(F)F)cc4)nc3)cc2CO1` [Example 58], the pIC50 was over 6.70. In the case of `Oc1ccc(OCc2cnc(Nc3ccc(OC(F)F)cc3)nc2)nn1` [Example 59], the pIC50 was over 6.70. `FC(F)Oc1ccc(Nc2ncc(COc3ccc4[nH]cnc4c3)cn2)cc1` [Example 60] showed a pIC50 of over 6.70. `O=C1Nc2ccc(OCc3cnc(Nc4ccc(OC(F)(F)F)cc4)nc3)cc2CO1` [Example 61] gave a pIC50 of over 6.70. Work on `FC(F)Oc1ccc(Nc2ncc(COc3cn[nH]c3)cn2)cc1` [Example 63] yielded a pIC50 of over 6.70. `FC(F)(F)Oc1ccc(Nc2ncc(COc3ccc4[nH]ncc4c3Cl)cn2)cc1` [Example 64] was tested, and the pIC50 was over 6.70. Work on `Nc1nc2ccc(OCc3cnc(Nc4ccc(OC(F)F)cc4)nc3)cc2s1` [Example 65] yielded a pIC50 of over 6.70. `FC(F)Oc1ccc(Nc2ncc(COc3ccc4[nH]ncc4c3Cl)cn2)cc1` [Example 66] showed a pIC50 of over 6.70. `Cc1cc(OCc2cnc(Nc3ccc(OC(F)(F)F)cc3)nc2)cc2cn[nH]c12` [Example 67] gave a pIC50 of over 6.70. `FC(F)(F)Oc1ccc(Nc2ncc(COc3ccc4[nH]nnc4c3)cn2)cc1` [Example 68] showed a pIC50 of over 6.70. `FC(F)Oc1ccc(Nc2ncc(COc3ccc4[nH]nnc4c3)cn2)cc1` [Example 69] was tested, and the pIC50 was over 6.70. For `Oc1ncc(OCc2cnc(Nc3ccc(OC(F)F)cc3)nc2)cn1` [Example 70], the pIC50 was over 6.70. Molecule `O=c1[nH]c2ccc(OCc3cnc(Nc4ccc(OC(F)(F)F)cc4)nc3)cc2s1` [Example 71] has a pIC50 of over 6.70. Molecule `Fc1cc(Nc2ncc(COc3ccc4[nH]ncc4c3Cl)cn2)ccc1OC(F)F` [Example 72] has a pIC50 of over 6.70. `Cc1cc(Nc2ncc(COc3ccc4[nH]ncc4c3Cl)cn2)ccc1OC(F)F` [Example 73] was tested, and the pIC50 was over 6.70. `FC(F)Oc1ccc(Nc2ncc(COc3ccc4[nH]ncc4c3)cn2)cc1Cl` [Example 75] showed a pIC50 of over 6.70. For `Cc1cc(Nc2ncc(COc3ccc4[nH]ncc4c3)cn2)ccc1OC(F)F` [Example 76], the pIC50 was over 6.70. With `O=C1Nc2ccc(OCc3cnc(Nc4ccc(OC(F)F)c(Cl)c4)nc3)cc2CO1` [Example 77] the pIC50 was over 6.70. `Cc1cc(Nc2ncc(COc3cc4ccc(=O)[nH]c4cc3F)cn2)ccc1OC(F)F` [Example 78] showed a pIC50 of over 6.70. `FC(F)Oc1ccc(Nc2ncc(COc3cnc4[nH]ncc4c3)cn2)cc1` [Example 79] showed a pIC50 of over 6.70. `O=c1[nH]c2ccc(OCc3cnc(Nc4ccc(OC(F)(F)F)cc4)nc3)cc2o1` [Example 80] was tested, and the pIC50 was over 6.70. In the case of `Cc1cc(Nc2ncc(COc3ccc4c(c3)COC(=O)N4)cn2)ccc1OC(F)F` [Example 82], the pIC50 was over 6.70. For `Cc1ccc(Nc2ncc(COc3ccc4c(c3)COC(=O)N4)cn2)cc1F` [Example 83], the pIC50 was over 6.70. Work on `O=C1Nc2ccc(OCc3cnc(Nc4ccc(OC(F)F)c(F)c4)nc3)cc2CO1` [Example 84] yielded a pIC50 of over 6.70. Molecule `O=C1Cc2cc(OCc3cnc(Nc4ccc(OC(F)F)c(F)c4)nc3)ccc2N1` [Example 85] has a pIC50 of over 6.70. `Cc1cc(Nc2ncc(COc3ccc4c(c3)CC(=O)N4)cn2)ccc1OC(F)F` [Example 86] gave a pIC50 of over 6.70. `Cc1cc(Nc2ncc(COc3ccc(Nc4nccs4)cc3)cn2)ccc1OC(F)F` [Example 87] showed a pIC50 of over 6.70. `O=c1ccc2cc(OCc3cnc(Nc4ccc(OC(F)F)c(Cl)c4)nc3)c(F)cc2[nH]1` [Example 88] was tested, and the pIC50 was over 6.70. `FC(F)Oc1ccc(Nc2ncc(COc3cnc4[nH]ccc4c3)cn2)cc1Cl` [Example 90] was tested, and the pIC50 was over 6.70. Work on `Fc1cc(Nc2ncc(COc3ccc(Nc4nccs4)cc3)cn2)ccc1OC(F)F` [Example 91] yielded a pIC50 of over 6.70. Work on `FC(F)Oc1ccc(Nc2ncc(COc3ccc(Nc4nccs4)cc3)cn2)cc1Cl` [Example 92] yielded a pIC50 of over 6.70. Work on `O=c1ccc2cc(OCc3ccnc(NCc4ccc(Cl)cc4)n3)ccc2[nH]1` [Example 94] yielded a pIC50 of 5.00 to 6.00.

Same assay, conditions: oocytes voltage clamped at −40 mV; 50 μM glutamate, 30 μM glycine; read-out: hNR2B IC50
`O=c1ccc2cc(OCc3ccnc(Nc4ccc(Cl)cc4)n3)ccc2[nH]1` [Example 93, 6-((2-(4-chlorophenylamino)pyrimidin-4-yl)methoxy)quinolin-2(1H)-one] was tested, and the pIC50 was 5.90.
